The structures appear in SMILES notation. “And” between values parts separate entries of the source, which are not always exact repeats. Equal entries are not always repeated.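 Compound exposure: 48 hours, 5 concentrations, 96-well plates. Abbreviation: GI50, concentration required for 50% inhibition of growth. The concentration for full growth arrest is given as TGI.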

Test systems include BT-549 breast; HOP-92 NSCLC; NCI-H460 lung; SF-268 CNS; RXF 393 renal; NCI-H23 lung; SK-MEL-5 melanoma; LOX IMVI melanoma; HCT-15 colon; NCI-H226 lung.
Test in all cases: inhibition of tumour cell growth, NCI panel, 48 h

With `Cn1c(-c2c(N)n(Cc3ccc(Cl)cc3)c3nc(C#N)c(C#N)nc23)nc2ccccc21`, the GI50 is 6.44 µM in the test with BT-549 breast; 2.35 µM in the test with HOP-92 NSCLC; 2.7 µM with NCI-H460 lung; 16.3 µM with SF-268 CNS; 0.567 µM in the test with RXF 393 renal; 1.18 µM with NCI-H23 lung. For the same molecule, the GI50 in the test with SK-MEL-5 melanoma was 5.24 µM; with LOX IMVI melanoma it was 1.14 µM; in the test with HCT-15 colon, 4.55 µM. Also, the TGI with BT-549 breast was 15.6 µM; in the test with HOP-92 NSCLC it was 10.1 µM; in the test with NCI-H460 lung, 25.7 µM; in the test with SF-268 CNS, above 50 µM; in the test with RXF 393 renal, 4.67 µM; with NCI-H23 lung, 2.48 µM. Moreover, the figures for the TGI in the test with SK-MEL-5 melanoma, with LOX IMVI melanoma and in the test on HCT-15 colon were 16.5 µM, 5.68 µM and above 50 µM, respectively.

For the molecule `O=C(Oc1ccccc1Cl)c1cccnc1Nc1ccnc(C(F)(F)F)c1`, the GI50 is 2.61 µM in the test on NCI-H226 lung; 5.12 µM in the test with BT-549 breast; 35.2 µM in the test with HOP-92 NSCLC; 38.4 µM with NCI-H460 lung; 10.1 µM with SF-268 CNS; 19.1 µM in the test with RXF 393 renal. In addition, the GI50 in the test with NCI-H23 lung is 8.79 µM; in the test with SK-MEL-5 melanoma it was 14 µM; in the test on LOX IMVI melanoma it was 3.96 µM; with HCT-15 colon, 14.6 µM. Also, the TGI in the test on NCI-H226 lung was 8.07 µM; in the test on BT-549 breast it was 22.4 µM; in the test with HOP-92 NSCLC, above 100 µM; in the test with NCI-H460 lung, above 100 µM; with SF-268 CNS, 33.6 µM; with RXF 393 renal, 42.6 µM. In addition, the TGI turned out to be 23.7 µM with NCI-H23 lung, 27 µM in the test on SK-MEL-5 melanoma, 14.2 µM in the test with LOX IMVI melanoma and 29.1 µM with HCT-15 colon.

Regarding `COc1ccc(OC)c(-c2cn3nc(-c4c[nH]c5ccc(Br)cc45)sc3n2)c1`, the GI50 was 10.3 µM in the test on NCI-H226 lung; 2.9 µM in the test with BT-549 breast; 2.01 µM in the test on HOP-92 NSCLC; 2.04 µM in the test with NCI-H460 lung; 2.7 µM in the test with SF-268 CNS; 3.19 µM in the test with RXF 393 renal. Further, the GI50 with NCI-H23 lung is 1.99 µM; in the test on SK-MEL-5 melanoma it was 3.86 µM; with HCT-15 colon, 2.11 µM. The TGI in the test on NCI-H226 lung worked out at 39.8 µM; in the test with BT-549 breast it was 11.2 µM; in the test with HOP-92 NSCLC, 5.68 µM; with NCI-H460 lung, 4.17 µM; with SF-268 CNS it was 7.6 µM; with RXF 393 renal, 8.82 µM. The TGI in the test on NCI-H23 lung worked out at 4.82 µM; with SK-MEL-5 melanoma, 15.2 µM; in the test on HCT-15 colon it was 5.47 µM.

As for `C=C(C)[C@@H]1CC[C@]2(C)[C@H](CC=C3[C@@H]4CC(C)(C)CC[C@]4(C(=O)OC)CC[C@]32C)[C@@]1(C)CC/C(N)=N/O`, the GI50 in the test with BT-549 breast was 1.93 µM; in the test on HOP-92 NSCLC, 1.42 µM; in the test on NCI-H460 lung, 1.89 µM; with SF-268 CNS it was 1.96 µM; with RXF 393 renal it was 1.8 µM; in the test on NCI-H23 lung it was 2.84 µM. The figures for the GI50 with SK-MEL-5 melanoma and in the test with HCT-15 colon were 1.77 µM and 2.05 µM, respectively. Besides, the TGI in the test with BT-549 breast came to 4.12 µM; with HOP-92 NSCLC it was 3.2 µM; with NCI-H460 lung it was 4.03 µM; in the test on SF-268 CNS it was 4.76 µM; with RXF 393 renal it was 3.67 µM; in the test with NCI-H23 lung, 10.1 µM. In addition, the TGI in the test on SK-MEL-5 melanoma came to 3.23 µM; in the test with HCT-15 colon, 5.6 µM.

Turning to `S=C(S)NCCCn1ccnc1`, the TGI in the test on NCI-H226 lung, with BT-549 breast, in the test with HOP-92 NSCLC, with NCI-H460 lung, with SF-268 CNS and in the test on NCI-H23 lung was above 100 µM in each case. Besides, the TGI with SK-MEL-5 melanoma, in the test on LOX IMVI melanoma and with HCT-15 colon was above 100 µM throughout.

Take `O=c1cc(-c2ccccc2)oc2cc(OCc3cn(Cc4ccc(F)cc4)nn3)cc(O)c12`: the GI50 is 3.51 µM in the test with NCI-H226 lung; 7.98 µM in the test on BT-549 breast; 4.43 µM in the test on HOP-92 NSCLC; 4.32 µM in the test with SF-268 CNS; 3.58 µM in the test on RXF 393 renal; 7.7 µM with NCI-H23 lung. For the same molecule, the GI50 with SK-MEL-5 melanoma and in the test on LOX IMVI melanoma was above 100 µM throughout. The TGI is above 100 µM in the test on NCI-H226 lung; above 100 µM in the test on BT-549 breast; 45.5 µM in the test on HOP-92 NSCLC; above 100 µM in the test on SF-268 CNS; 30.1 µM in the test with RXF 393 renal; above 100 µM with NCI-H23 lung. Besides, the TGI with SK-MEL-5 melanoma and with LOX IMVI melanoma was above 100 µM in each case.

As to `COc1cc2c(C#N)n3c(c2cc1OC)C(=O)C(c1ccccc1)Oc1ccccc1-3` (stereo not drawn), the GI50 is 2.9 µM in the test with NCI-H226 lung; 1.97 µM with BT-549 breast; 1.46 µM in the test on HOP-92 NSCLC; 3.32 µM in the test with SF-268 CNS; 3.29 µM in the test with RXF 393 renal; 3.04 µM in the test on NCI-H23 lung. Further, in the test with LOX IMVI melanoma, the GI50 is 3.18 µM. Further, the TGI in the test on NCI-H226 lung was above 100 µM; in the test with BT-549 breast, 5.54 µM; with HOP-92 NSCLC it was 5.52 µM; in the test with SF-268 CNS, above 100 µM; with RXF 393 renal, 19.5 µM; in the test with NCI-H23 lung, above 100 µM. In the test with LOX IMVI melanoma, this molecule displayed a TGI above 100 µM.

For the molecule `CCN(CC)CCNc1ccc(CO)c2sc3ccccc3c(=O)c12`, the GI50 in the test with NCI-H226 lung is 1.74 µM; in the test with BT-549 breast, 6.99 µM; in the test on HOP-92 NSCLC, 1.91 µM and 5.36 µM; with NCI-H460 lung, 3.44 µM; in the test on SF-268 CNS, 3.62 µM; with RXF 393 renal, 2.23 µM and 7.35 µM. Also, the GI50 with NCI-H23 lung was 3.14 µM and 13.6 µM. The TGI in the test with NCI-H226 lung is 4.48 µM and 44.8 µM and 26.1 µM; with BT-549 breast, 21.9 µM and 26.9 µM; in the test with HOP-92 NSCLC it was 15 µM and 14.9 µM and 17.9 µM; with NCI-H460 lung, 11 µM and 15.1 µM and 12.2 µM; in the test with SF-268 CNS, 16.3 µM and 21.2 µM and 20.9 µM; with RXF 393 renal, 8.45 µM and 19 µM and 20.3 µM. In the test with NCI-H23 lung, the TGI is 16.4 µM and 22.7 µM and 29.3 µM.

For `COc1cccc2c1C(=O)c1c(O)c3c(c(O)c1C2=O)C[C@@](O)(C(=O)COC(=O)c1cccnc1)C[C@@H]3OC1CC(N)C(O)C(C)O1` (stereo partly drawn), the GI50 in the test with BT-549 breast was 0.193 µM; in the test on HOP-92 NSCLC it was 0.0859 µM; with NCI-H460 lung, 0.0269 µM; in the test with SF-268 CNS, 0.155 µM; with RXF 393 renal, 0.169 µM; in the test on NCI-H23 lung, 0.178 µM. The GI50 in the test with SK-MEL-5 melanoma is 0.118 µM; with LOX IMVI melanoma, 0.0443 µM; with HCT-15 colon, 1.07 µM. Further, the TGI was 1.02 µM with BT-549 breast; 0.737 µM in the test on HOP-92 NSCLC; 0.215 µM in the test with NCI-H460 lung; 1.53 µM with SF-268 CNS; 0.589 µM with RXF 393 renal; 1.02 µM in the test on NCI-H23 lung. The results for the TGI with SK-MEL-5 melanoma, in the test on LOX IMVI melanoma and in the test with HCT-15 colon were 0.252 µM, 0.372 µM and 16.8 µM, respectively.

The record behind these values is PubChem BioAssay (NCI).
